According to PubChem BioAssay (NCI):
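Five compound concentrations were applied to cells in 96-well plates for 48 hours; endpoints were derived by simple linear interpolation of the resulting dose-response curve. GI50 = concentration required for 50% inhibition of growth. TGI is the concentration that stops growth completely.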

Assays:
Assay in all cases: inhibition of tumour cell growth, NCI panel, 48 h
NCI-H226 lung = test system: NCI-H226 lung
COLO 205 colon = test system: COLO 205 colon
RPMI-8226 leukemia = test system: RPMI-8226 leukemia
DU-145 prostate = test system: DU-145 prostate
SK-MEL-2 melanoma = test system: SK-MEL-2 melanoma
OVCAR-8 ovarian = test system: OVCAR-8 ovarian
DMS 273 small cell lung = test system: DMS 273 small cell lung
LOX IMVI melanoma = test system: LOX IMVI melanoma
SF-539 CNS = test system: SF-539 CNS
SNB-75 CNS = test system: SNB-75 CNS
NCI-H23 lung = test system: NCI-H23 lung
KM20L2 colon = test system: KM20L2 colon
MDA-MB-435 = test system: MDA-MB-435
HCT-116 colon = test system: HCT-116 colon
OVCAR-4 ovarian = test system: OVCAR-4 ovarian
HT29 colon = test system: HT29 colon
PC-3 prostate = test system: PC-3 prostate
ACHN renal = test system: ACHN renal
UACC-62 melanoma = test system: UACC-62 melanoma
HCT-15 colon = test system: HCT-15 colon
MDA-MB-231 breast = test system: MDA-MB-231 breast
HCC-2998 colon = test system: HCC-2998 colon
SF-268 CNS = test system: SF-268 CNS
OVCAR-5 ovarian = test system: OVCAR-5 ovarian
DMS 114 small cell lung = test system: DMS 114 small cell lung
CAKI-1 renal = test system: CAKI-1 renal
TK-10 renal = test system: TK-10 renal
U251 CNS = test system: U251 CNS
T-47D breast = test system: T-47D breast
SK-MEL-28 melanoma = test system: SK-MEL-28 melanoma
SR leukemia = test system: SR leukemia
786-0 renal = test system: 786-0 renal
HOP-18 NSCLC = test system: HOP-18 NSCLC
K-562 leukemia = test system: K-562 leukemia
NCI-H460 lung = test system: NCI-H460 lung
UACC-257 melanoma = test system: UACC-257 melanoma
A498 renal = test system: A498 renal
SK-OV-3 ovarian = test system: SK-OV-3 ovarian
RXF 393 renal = test system: RXF 393 renal
NCI/ADR-RES ovarian = test system: NCI/ADR-RES ovarian
SNB-78 CNS = test system: SNB-78 CNS
HL-60(TB) leukemia = test system: HL-60(TB) leukemia
SNB-19 CNS = test system: SNB-19 CNS
CCRF-CEM leukemia = test system: CCRF-CEM leukemia
A549 NSCLC = test system: A549 NSCLC
NCI-H522 lung = test system: NCI-H522 lung
LXFL 529 NSCLC = test system: LXFL 529 NSCLC
BT-549 breast = test system: BT-549 breast
RXF-631 renal = test system: RXF-631 renal
MALME-3M melanoma = test system: MALME-3M melanoma
DLD-1 colon = test system: DLD-1 colon
SF-295 CNS = test system: SF-295 CNS
IGROV1 ovarian = test system: IGROV1 ovarian
EKVX NSCLC = test system: EKVX NSCLC
HOP-92 NSCLC = test system: HOP-92 NSCLC
HOP-62 NSCLC = test system: HOP-62 NSCLC
SK-MEL-5 melanoma = test system: SK-MEL-5 melanoma
SW-620 colon = test system: SW-620 colon
HS 578T breast = test system: HS 578T breast
OVCAR-3 ovarian = test system: OVCAR-3 ovarian
KM12 colon = test system: KM12 colon
M14 melanoma = test system: M14 melanoma
MOLT-4 leukemia = test system: MOLT-4 leukemia
SN12C renal = test system: SN12C renal
MCF7 breast = test system: MCF7 breast
XF 498 CNS = test system: XF 498 CNS
UO-31 renal = test system: UO-31 renal
M19-MEL melanoma = test system: M19-MEL melanoma

Cc1cc(O)c2c(c1)C(=O)c1cc(O)cc(O)c1C2=O
TGI (NCI-H226 lung): > 70.9 µM | TGI (COLO 205 colon): 42 µM | TGI (RPMI-8226 leukemia): 99.8 µM | GI50 (DU-145 prostate): 46.2 µM | TGI (DU-145 prostate): > 100 µM | TGI (SK-MEL-2 melanoma): > 74.3 µM | GI50 (OVCAR-8 ovarian): 34.3 µM | TGI (OVCAR-8 ovarian): > 100 µM | TGI (DMS 273 small cell lung): 62.2 µM | TGI (LOX IMVI melanoma): 47.3 µM | GI50 (SF-539 CNS): 54.2 µM | TGI (SF-539 CNS): > 100 µM | TGI (SNB-75 CNS): > 81.6 µM | TGI (NCI-H23 lung): > 63.6 µM | TGI (KM20L2 colon): > 100 µM | GI50 (MDA-MB-435): 18.1 µM | TGI (MDA-MB-435): 62.5 µM | TGI (HCT-116 colon): > 58.9 µM | TGI (OVCAR-4 ovarian): 98.8 µM | TGI (HT29 colon): > 100 µM | GI50 (PC-3 prostate): 25 µM | TGI (PC-3 prostate): > 100 µM | TGI (ACHN renal): 73.3 µM | GI50 (UACC-62 melanoma): 11.2 µM | TGI (UACC-62 melanoma): 38.1 µM | TGI (HCT-15 colon): > 80.2 µM | GI50 (MDA-MB-231 breast): 16.1 µM | TGI (MDA-MB-231 breast): 57.5 µM | TGI (HCC-2998 colon): > 100 µM | TGI (SF-268 CNS): 97.5 µM | TGI (OVCAR-5 ovarian): > 100 µM | TGI (DMS 114 small cell lung): > 100 µM | TGI (CAKI-1 renal): 52.9 µM | TGI (TK-10 renal): > 81.1 µM | TGI (U251 CNS): > 96.3 µM | GI50 (T-47D breast): 21.2 µM | TGI (T-47D breast): > 100 µM | TGI (SK-MEL-28 melanoma): > 82.9 µM | TGI (SR leukemia): 68 µM | GI50 (786-0 renal): 25.5 µM | TGI (786-0 renal): 84.6 µM | TGI (HOP-18 NSCLC): 37 µM | GI50 (K-562 leukemia): 28 µM | TGI (K-562 leukemia): > 100 µM | TGI (NCI-H460 lung): > 78.4 µM | TGI (UACC-257 melanoma): > 100 µM | TGI (A498 renal): 56.5 µM | TGI (SK-OV-3 ovarian): > 91.9 µM | TGI (RXF 393 renal): > 100 µM | GI50 (NCI/ADR-RES ovarian): 36.8 µM | TGI (NCI/ADR-RES ovarian): > 100 µM | TGI (SNB-78 CNS): > 100 µM | TGI (HL-60(TB) leukemia): 76.5 µM | TGI (SNB-19 CNS): > 100 µM | TGI (CCRF-CEM leukemia): > 100 µM | TGI (A549 NSCLC): > 100 µM | TGI (NCI-H522 lung): > 66.3 µM | TGI (LXFL 529 NSCLC): 85.3 µM | GI50 (BT-549 breast): 25.4 µM | TGI (BT-549 breast): 86 µM | TGI (RXF-631 renal): > 100 µM | TGI (MALME-3M melanoma): 50.6 µM | TGI (DLD-1 colon): > 100 µM | TGI (SF-295 CNS): > 83.1 µM | GI50 (IGROV1 ovarian): 65.2 µM | TGI (IGROV1 ovarian): > 100 µM | GI50 (EKVX NSCLC): 24.3 µM | TGI (EKVX NSCLC): > 100 µM | TGI (HOP-92 NSCLC): 56.8 µM | TGI (HOP-62 NSCLC): 44.3 µM | TGI (SK-MEL-5 melanoma): 24.4 µM | TGI (SW-620 colon): > 100 µM | GI50 (HS 578T breast): 26.2 µM | TGI (HS 578T breast): 82.4 µM | GI50 (OVCAR-3 ovarian): 14.7 µM | TGI (OVCAR-3 ovarian): 42.2 µM | TGI (KM12 colon): > 57.5 µM | TGI (M14 melanoma): 60.9 µM | TGI (MOLT-4 leukemia): > 100 µM | TGI (SN12C renal): > 78.9 µM | GI50 (MCF7 breast): 27.7 µM | TGI (MCF7 breast): > 100 µM | TGI (XF 498 CNS): 86.7 µM

CCc1cccc(C(C)C)c1NC(=O)C(=O)C(C(=O)C(=O)OC)c1nc2ccccc2[nH]c1=O (stereo not drawn)
TGI (NCI-H226 lung): > 100 µM | TGI (COLO 205 colon): > 100 µM | TGI (RPMI-8226 leukemia): > 100 µM | TGI (SK-MEL-2 melanoma): > 100 µM | TGI (OVCAR-8 ovarian): > 100 µM | TGI (DMS 273 small cell lung): > 100 µM | TGI (LOX IMVI melanoma): > 100 µM | TGI (SNB-75 CNS): > 100 µM | TGI (NCI-H23 lung): > 100 µM | TGI (KM20L2 colon): > 100 µM | TGI (HCT-116 colon): > 100 µM | TGI (OVCAR-4 ovarian): > 100 µM | TGI (HT29 colon): > 100 µM | TGI (ACHN renal): > 100 µM | TGI (UACC-62 melanoma): > 100 µM | TGI (HCT-15 colon): > 100 µM | TGI (HCC-2998 colon): > 100 µM | TGI (SF-268 CNS): > 100 µM | TGI (OVCAR-5 ovarian): > 100 µM | TGI (DMS 114 small cell lung): > 100 µM | TGI (CAKI-1 renal): > 100 µM | TGI (TK-10 renal): > 100 µM | TGI (U251 CNS): > 100 µM | TGI (SK-MEL-28 melanoma): > 100 µM | TGI (SR leukemia): > 100 µM | TGI (786-0 renal): > 100 µM | TGI (HOP-18 NSCLC): > 100 µM | TGI (K-562 leukemia): > 100 µM | TGI (NCI-H460 lung): > 100 µM | TGI (UACC-257 melanoma): > 100 µM | TGI (A498 renal): > 100 µM | TGI (SK-OV-3 ovarian): > 100 µM | TGI (RXF 393 renal): > 100 µM | TGI (SNB-78 CNS): > 100 µM | TGI (HL-60(TB) leukemia): > 100 µM | TGI (SNB-19 CNS): > 100 µM | TGI (CCRF-CEM leukemia): > 100 µM | TGI (A549 NSCLC): > 100 µM | TGI (NCI-H522 lung): > 100 µM | TGI (LXFL 529 NSCLC): > 100 µM | TGI (RXF-631 renal): > 100 µM | TGI (MALME-3M melanoma): > 100 µM | TGI (SF-295 CNS): > 100 µM | TGI (IGROV1 ovarian): > 100 µM | TGI (EKVX NSCLC): > 100 µM | TGI (HOP-92 NSCLC): > 100 µM | TGI (SK-MEL-5 melanoma): > 100 µM | TGI (SW-620 colon): > 100 µM | TGI (KM12 colon): > 100 µM | TGI (M14 melanoma): > 100 µM | TGI (MOLT-4 leukemia): > 100 µM | TGI (UO-31 renal): > 100 µM | TGI (SN12C renal): > 100 µM | TGI (M19-MEL melanoma): > 100 µM | TGI (XF 498 CNS): > 100 µM
